Measurements from patent publication US20230091225A1, “Bifunctional chimeric heterocyclic compounds for targeted degradation of androgen receptors and use thereof” (HINOVA PHARMACEUTICALS INC., priority 2019, published 2023).

These compounds were tested against T1, androgen receptor (AR) (Homo sapiens, UniProt P10275) (assay: Degradation of androgen receptor (AR) protein in VCaP cells by Western blot). Conditions: percentage of degraded AR at 100 nM, VCaP cells, 16 h.
T1 sequence (P10275 1-920): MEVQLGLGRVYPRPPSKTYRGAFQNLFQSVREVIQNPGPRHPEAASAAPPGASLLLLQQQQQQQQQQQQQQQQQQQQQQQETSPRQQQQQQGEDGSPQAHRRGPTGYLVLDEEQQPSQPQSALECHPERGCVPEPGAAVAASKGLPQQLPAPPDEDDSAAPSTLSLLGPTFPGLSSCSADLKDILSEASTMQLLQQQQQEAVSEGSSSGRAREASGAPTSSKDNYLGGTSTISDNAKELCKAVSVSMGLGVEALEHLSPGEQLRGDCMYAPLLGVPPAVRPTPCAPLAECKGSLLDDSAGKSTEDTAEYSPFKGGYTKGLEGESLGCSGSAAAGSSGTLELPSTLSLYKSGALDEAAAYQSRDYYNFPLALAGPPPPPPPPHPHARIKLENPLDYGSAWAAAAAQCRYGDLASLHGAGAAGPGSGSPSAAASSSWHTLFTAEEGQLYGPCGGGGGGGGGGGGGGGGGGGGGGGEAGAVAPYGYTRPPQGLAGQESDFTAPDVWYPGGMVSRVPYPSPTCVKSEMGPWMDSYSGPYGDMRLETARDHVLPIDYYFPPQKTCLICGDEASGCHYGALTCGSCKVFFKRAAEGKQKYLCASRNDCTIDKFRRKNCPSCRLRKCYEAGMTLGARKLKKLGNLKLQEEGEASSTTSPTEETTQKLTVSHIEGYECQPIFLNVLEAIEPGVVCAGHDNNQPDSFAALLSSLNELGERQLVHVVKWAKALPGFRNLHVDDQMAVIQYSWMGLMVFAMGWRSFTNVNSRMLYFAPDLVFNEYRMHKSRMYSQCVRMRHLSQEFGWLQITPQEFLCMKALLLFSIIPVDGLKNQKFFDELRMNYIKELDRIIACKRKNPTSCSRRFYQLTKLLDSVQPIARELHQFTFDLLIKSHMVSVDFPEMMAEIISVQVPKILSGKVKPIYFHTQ
Format: cell-based
Method in brief: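 AR and β-actin levels were read by Western blot with ECL detection, loading 30 μg lysate protein per well. Before lysis, VCaP cells seeded at 5×10^5/well and grown overnight were exposed to compound for 16 h, two wells per concentration, keeping DMSO at 0.1%.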

| inhibition at 0.1 µM | SMILES |
| --- | --- |
| < 25% | N#Cc1ccc(O[C@H]2CC[C@H](NC(=O)c3cnc(N4CCN([C@@H]5C[C@@H]6CN(c7ccc8c(c7)C(=O)N(C7CCC(=O)NC7=O)C8=O)C[C@@H]6C5)CC4)cn3)CC2)cc1Cl (stereo partly drawn) [Compound 296, N-((1r,4r)-4-(3-chloro-4-cyanophenoxy)cyclohexyl)-5-(4-((3aR,5R,6aS)-2-(2-(2,6-dioxopiperidin-3-yl)-1,3-dioxoisoindol-5-yl)octahydrocyclopenta [c]pyrrol-5-yl)piperazin-1-yl)pyrazine-2-carboxamide] |
| 25 to 49% | N#Cc1ccc(O[C@H]2CC[C@H](NC(=O)c3ccc(N4CCN([C@@H]5C[C@@H]6CN(c7cc8c(cc7F)C(=O)N(C7CCC(=O)NC7=O)C8=O)C[C@@H]6C5)CC4)nn3)CC2)cc1Cl (stereo partly drawn) [Compound 297, N-((1r,4r)-4-(3-chloro-4-cyanophenoxy)cyclohexyl)-6-(4-((3aR,5R,6aS)-2-(2-(2,6-dioxopiperidin-3-yl)-6-fluoro-1,3-dioxoisoindolin-5-yl)octahydrocyclopenta[c]pyrrol-5-yl)piperazin-1-yl)pyridazine-3-formamide] |
| < 25% | N#Cc1ccc(O[C@H]2CC[C@H](NC(=O)c3ccc(N4CCN([C@@H]5C[C@@H]6CN(c7ccc8c(c7)C(=O)N(C7CCC(=O)NC7=O)C8=O)C[C@@H]6C5)CC4)nn3)CC2)cc1Cl (stereo partly drawn) [Compound 298, N-((1r,4r)-4-(3-chloro-4-cyanophenoxy)cyclohexyl)-6-(4-((3aR,5R,6aS)-2-(2-(2,6-dioxopiperidin-3-yl)-1,3-dioxoisoindolin-5-yl)octahydrocyclopenta[c]pyrrol-5-yl)piperazin-1-yl)pyridazine-3-formamide] |
| < 25% | N#Cc1ccc(O[C@H]2CC[C@H](NC(=O)c3cnc(N4CCN([C@@H]5C[C@@H]6CN(c7cc8c(cc7F)C(=O)N(C7CCC(=O)NC7=O)C8=O)C[C@@H]6C5)CC4)nc3)CC2)cc1Cl (stereo partly drawn) [Compound 299, N-((1r,4r)-4-(3-chloro-4-cyanophenoxy)cyclohexyl)-2-(4-((3aR,5R,6aS)-2-(2-(2,6-dioxopiperidin-3-yl)-6-fluoro-1,3-dioxoisoindolin-5-yl)octahydrocyclopenta[c]pyrrol-5-yl)piperazin-1-yl)pyrimidine-5-formamide] |
| < 25% | N#Cc1ccc(O[C@H]2CC[C@H](NC(=O)c3cnc(N4CCN([C@@H]5C[C@@H]6CN(c7ccc8c(c7)C(=O)N(C7CCC(=O)NC7=O)C8=O)C[C@@H]6C5)CC4)nc3)CC2)cc1Cl (stereo partly drawn) [Compound 300, N-((1r,4r)-4-(3-chloro-4-cyanophenoxy)cyclohexyl)-2-(4-((3aR,5R,6aS)-2-(2-(2,6-dioxopiperidin-3-yl)-1,3-dioxoisoindolin-5-yl)octahydrocyclopenta[c]pyrrol-5-yl)piperazin-1-yl)pyrimidine-5-carboxamide] |
| 50 to 79% | N#Cc1ccc(O[C@H]2CC[C@H](NC(=O)c3cnc(N4CCN(C(=O)O[C@H]5C[C@@H]6CN(c7ccc8c(c7)C(=O)N(C7CCC(=O)NC7=O)C8=O)C[C@@H]6C5)CC4)cn3)CC2)cc1Cl (stereo partly drawn) [Compound 301] |
| < 25% | N#Cc1ccc(O[C@H]2C[C@H]3C[C@@H](NC(=O)c4cnc(N5CCC(CN6CCN(c7ccc8c(c7)C(=O)N(C7CCC(=O)NC7=O)C8=O)CC6)CC5)cn4)C[C@H]3C2)cc1Cl (stereo partly drawn) [Compound 303, N-((2s,3aR,5R,6aS)-5-(3-chloro-4-cyanophenoxy)octahydropenten-2-yl)-5-(4-((4-(2-(2,6-dioxopiperidin-3-yl)-1,3-dioxoisoindolin-5-yl)piperazin-1-yl)methyl)piperidin-1-yl)piperazine-2-carboxamide] |
| 25 to 49% | CC1(C)[C@H](Oc2ccc(C#N)c(Cl)c2)C(C)(C)[C@H]1N1Cc2nc(C#CC3CCN(C4CCN(c5cc6c(cc5F)C(=O)N(C5CCC(=O)NC5=O)C6=O)CC4)CC3)ccc2C1=O (stereo partly drawn) [Compound 316] |
| < 25% | N#Cc1ccc(O[C@H]2CC[C@H](N3Cc4nc(C#CC5CCN(C6CCN(c7ccc8c(c7)C(=O)N(C7CCC(=O)NC7=O)C8=O)CC6)CC5)ccc4C3=O)CC2)cc1Cl (stereo partly drawn) [Compound 323] |

| SMILES | inhibition at 0.1 µM |
| --- | --- |
| N#Cc1ccc(O[C@H]2CC[C@H](NC(=O)c3ccc(N4CCC(NC5CCN(c6ccc7c(c6)C(=O)N(C6CCC(=O)NC6=O)C7=O)CC5)CC4)cc3)CC2)cc1Cl (stereo partly drawn) [Compound 302, N-((1r,4r)-4-(3-chloro-4-cyanophenoxy)cyclohexyl)-4-(4-((1-(2-(2,6-dioxopiperidin-3-yl)-1,3-dioxoisoindolin-5-yl)piperidine-4-yl)amino)piperidin-1-yl)benzamide] | < 25% |
| CC1(C)[C@H](Oc2ccc(C#N)c(Cl)c2)C(C)(C)[C@H]1N1Cc2nc(C#CC3CCN(C4CCN(c5ccc6c(c5)C(=O)N(C5CCC(=O)NC5=O)C6=O)CC4)CC3)ccc2C1=O (stereo partly drawn) [Compound 315, 2-chloro-4-((1r,3r)-3-(2-((1′-(2-(2,6-dioxopiperidin-3-yl)-1,3-dioxoisoindolin-5-yl)-[1,4′-dipiperidine]4-yl)ethynyl)-5-oxo-5,7-dihydro-6H-pyrrolo[3,4-b]pyridin-6-yl)-2,2,4,4-tetramethylcyclobutoxy)benzonitrile] | < 25% |
| CC1(C)[C@H](Oc2ccc(C#N)c(Cl)c2)C(C)(C)[C@H]1N1Cc2nc(C#CC3CCN(C4CN(c5ccc6c(c5)C(=O)N(C5CCC(=O)NC5=O)C6=O)C4)CC3)ccc2C1=O (stereo partly drawn) [Compound 317, 2-Chloro-4-((1r,3r)-3-(2-((1-(1-(2-(2,6-dioxopiperidin-3-yl)-6-fluoro-1,3-dioxoisoindolin-5-yl)azitidin-3-yl)piperidine-4-yl)ethynyl)-5-oxo-5H-pyrrolino [3,4-b]pyridin-6(7H)-yl)-2,2,4,4-tetramethylcyclobutoxy)benzonitrile] | 50 to 79% |
| CC1(C)[C@H](Oc2ccc(C#N)c(Cl)c2)C(C)(C)[C@H]1N1Cc2nc(C#CC3CCN(C4CN(c5cc6c(cc5F)C(=O)N(C5CCC(=O)NC5=O)C6=O)C4)CC3)ccc2C1=O (stereo partly drawn) [Compound 318, 2-Chloro-4-((1r,3r)-3-(2-((1-(1-(2-(2,6-dioxopiperidin-3-yl)-6-fluoro-1,3-dioxoisoindolin-5-yl)azitidin-3-yl)piperidine-4-yl)ethynyl)-5-oxo-5H-pyrrolino [3,4-b]pyridin-6(7H)-yl)-2,2,4,4-tetramethylcyclobutoxy)benzonitrile] | 50 to 79% |
| CC1(C)[C@H](Oc2ccc(C#N)c(Cl)c2)C(C)(C)[C@H]1N1Cc2nc(C#CC3CN(C4CCN(c5ccc6c(c5)C(=O)N(C5CCC(=O)NC5=O)C6=O)CC4)C3)ccc2C1=O (stereo partly drawn) [Compound 319, 2-Chloro-4-((1r,3r)-3-(2-((1-(1-(2-(2,6-dioxopiperidin-3-yl)-1,3-dioxoisoindolin-5-yl)piperidine-4-yl)azelaic acid-3-yl)ethynyl)-5-oxo-5H-pyrrolo[3,4-b]pyridin-6(7H)-yl)-2,2,4,4-tetramethylcyclobutoxy)benzonitrile] | < 25% |
| CC1(C)[C@H](Oc2ccc(C#N)c(Cl)c2)C(C)(C)[C@H]1N1Cc2nc(C#CC3CN(C4CCN(c5cc6c(cc5F)C(=O)N(C5CCC(=O)NC5=O)C6=O)CC4)C3)ccc2C1=O (stereo partly drawn) [Compound 320, 2-Chloro-4-((1r,3r)-3-(2-((1-(1-(2-(2,6-dioxopiperidin-3-yl)-6-fluoro-1,3-dioxoisoindolin-5-yl)piperidine-4-yl)azelaic acid-3-yl)ethynyl)-5-oxo-5H-pyrrolino[3,4-b]pyridin-6(7H)-yl)-2,2,4,4-tetramethylcyclobutoxy)benzonitrile] | 50 to 79% |
